Laboratory results: ChEMBL document CHEMBL1201862, “PubChem BioAssay data set” (2004)
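Grown in 96-well plates, cells were treated for 48 hours with each compound at five concentrations. Insufficient inhibition: endpoint recorded as highest concentration tested. At the GI50, growth is halved.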 The source made the active and inactive calls. Rule as the data show it: active = GI50 up to about 1.1 µM and inactive = higher.

How the values were obtained:
Assay in all cases: growth of human tumour cells (NCI), 48 h
Hs-578T = tested on: Hs-578T
HL-60 = tested on: HL-60
KM12 = tested on: KM12
HOP-62 = tested on: HOP-62
MCF7 = tested on: MCF7
NCI-H23 = tested on: NCI-H23
A549 = tested on: A549
SF-268 = tested on: SF-268
SNB-75 = tested on: SNB-75
Malme-3M = tested on: Malme-3M
OVCAR-8 = tested on: OVCAR-8
UO-31 = tested on: UO-31
CAKI-1 = tested on: CAKI-1
SF-539 = tested on: SF-539
MDA-MB-435 = tested on: MDA-MB-435
A498 = tested on: A498
U-251 = tested on: U-251
RXF 393 = tested on: RXF 393
SK-MEL-28 = tested on: SK-MEL-28
M14 = tested on: M14
SK-OV-3 = tested on: SK-OV-3
NCI/ADR-RES = tested on: NCI/ADR-RES
OVCAR-3 = tested on: OVCAR-3
MDA-MB-231 = tested on: MDA-MB-231
NCI-H460 = tested on: NCI-H460
NCI-H226 = tested on: NCI-H226
IGROV-1 = tested on: IGROV-1
COLO 205 = tested on: COLO 205
LOX IMVI = tested on: LOX IMVI
RPMI-8226 = tested on: RPMI-8226
TK-10 = tested on: TK-10
OVCAR-4 = tested on: OVCAR-4
SNB-19 = tested on: SNB-19
SW-620 = tested on: SW-620
UACC-62 = tested on: UACC-62
HT-29 = tested on: HT-29
HCT-116 = tested on: HCT-116
SF-295 = tested on: SF-295
NCI-H522 = tested on: NCI-H522
K562 = tested on: K562
HCT-15 = tested on: HCT-15
DU-145 = tested on: DU-145
MOLT-4 = tested on: MOLT-4
SR = tested on: SR
HOP-92 = tested on: HOP-92
UACC-257 = tested on: UACC-257
EKVX = tested on: EKVX
786-0 = tested on: 786-0
SN12C = tested on: SN12C
BT-549 = tested on: BT-549
CCRF-CEM = tested on: CCRF-CEM
PC-3 = tested on: PC-3
MDA-N = tested on: MDA-N
ACHN = tested on: ACHN
SK-MEL-2 = tested on: SK-MEL-2
T47D = tested on: T47D
SK-MEL-5 = tested on: SK-MEL-5
OVCAR-5 = tested on: OVCAR-5
HCC 2998 = tested on: HCC 2998

Structure (SMILES): CC(=O)c1nc2ccccc2n1C(C)C(=O)c1ccccc1 (stereo unspecified)
- GI50 (Hs-578T): 81.1 µM (inactive)
- GI50 (HL-60): 29.6 µM (inactive)
- GI50 (KM12): 58.3 µM (inactive)
- GI50 (HOP-62): 57.1 µM (inactive)
- GI50 (MCF7): 22.2 µM (inactive)
- GI50 (NCI-H23): > 100 µM (inactive)
- GI50 (A549): 27.1 µM (inactive)
- GI50 (SF-268): 26.5 µM (inactive)
- GI50 (SNB-75): > 100 µM (inactive)
- GI50 (Malme-3M): 50.2 µM (inactive)
- GI50 (OVCAR-8): 23.1 µM (inactive)
- GI50 (UO-31): 50.7 µM (inactive)
- GI50 (CAKI-1): 61.5 µM (inactive)
- GI50 (SF-539): > 100 µM (inactive)
- GI50 (MDA-MB-435): 52.7 µM (inactive)
- GI50 (A498): > 100 µM (inactive)
- GI50 (U-251): 57.3 µM (inactive)
- GI50 (RXF 393): > 100 µM (inactive)
- GI50 (SK-MEL-28): > 100 µM (inactive)
- GI50 (M14): 42.8 µM (inactive)
- GI50 (SK-OV-3): 69 µM (inactive)
- GI50 (NCI/ADR-RES): 46 µM (inactive)
- GI50 (OVCAR-3): 41.8 µM (inactive)
- GI50 (MDA-MB-231): 36.1 µM (inactive)
- GI50 (NCI-H460): 33 µM (inactive)
- GI50 (NCI-H226): > 100 µM (inactive)
- GI50 (IGROV-1): 30.2 µM (inactive)
- GI50 (COLO 205): > 100 µM (inactive)
- GI50 (LOX IMVI): 34.3 µM (inactive)
- GI50 (RPMI-8226): 51.6 µM (inactive)
- GI50 (TK-10): 91.8 µM (inactive)
- GI50 (OVCAR-4): 47.4 µM (inactive)
- GI50 (SNB-19): 77.6 µM (inactive)
- GI50 (SW-620): 43.7 µM (inactive)
- GI50 (UACC-62): 33 µM (inactive)
- GI50 (HT-29): > 100 µM (inactive)
- GI50 (HCT-116): 50.4 µM (inactive)
- GI50 (SF-295): 54.6 µM (inactive)
- GI50 (NCI-H522): 15.5 µM (inactive)
- GI50 (K562): 36.5 µM (inactive)
- GI50 (HCT-15): 81.5 µM
- GI50 (DU-145): 64.9 µM (inactive)
- GI50 (MOLT-4): 34.9 µM (inactive)
- GI50 (SR): 36.3 µM (inactive)
- GI50 (HOP-92): 69.3 µM (inactive)
- GI50 (UACC-257): 54.6 µM (inactive)
- GI50 (EKVX): > 100 µM (inactive)
- GI50 (786-0): 36.9 µM (inactive)
- GI50 (SN12C): 56.6 µM (inactive)
- GI50 (BT-549): 52 µM (inactive)
- GI50 (CCRF-CEM): 39.6 µM (inactive)
- GI50 (PC-3): 72.1 µM (inactive)
- GI50 (MDA-N): 54.1 µM (inactive)

Structure (SMILES): CCCCP(CCCC)(CCCC)=C(C(=O)OC)C(C(=O)OC)=C1SC(C(=O)OC)=C(C(=O)OC)S1
- GI50 (ACHN): 22.9 µM (inactive)
- GI50 (Hs-578T): 18.5 µM (inactive)
- GI50 (HOP-62): 20.4 µM (inactive)
- GI50 (MCF7): 16.8 µM (inactive)
- GI50 (NCI-H23): 17.5 µM (inactive)
- GI50 (A549): 17.6 µM (inactive)
- GI50 (SF-268): 30.6 µM (inactive)
- GI50 (SK-MEL-2): 26.2 µM (inactive)
- GI50 (SNB-75): 17.5 µM (inactive)
- GI50 (Malme-3M): 18.2 µM (inactive)
- GI50 (OVCAR-8): 20.7 µM (inactive)
- GI50 (UO-31): 20.3 µM (inactive)
- GI50 (T47D): 13.5 µM (inactive)
- GI50 (MDA-MB-435): 14.8 µM (inactive)
- GI50 (U-251): 16 µM (inactive)
- GI50 (RXF 393): 10.3 µM (inactive)
- GI50 (SK-MEL-28): 15.5 µM (inactive)
- GI50 (M14): 15.2 µM (inactive)
- GI50 (SK-OV-3): 25.8 µM (inactive)
- GI50 (NCI/ADR-RES): > 10 µM (inactive)
- GI50 (SK-MEL-5): 16.2 µM (inactive)
- GI50 (OVCAR-3): 19.3 µM (inactive)
- GI50 (MDA-MB-231): 17.9 µM (inactive)
- GI50 (NCI-H460): 16 µM (inactive)
- GI50 (NCI-H226): 20 µM (inactive)
- GI50 (IGROV-1): 11.6 µM (inactive)
- GI50 (COLO 205): 17 µM (inactive)
- GI50 (LOX IMVI): 13.2 µM (inactive)
- GI50 (RPMI-8226): 63.2 µM (inactive)
- GI50 (OVCAR-5): 23 µM (inactive)
- GI50 (TK-10): 38.6 µM (inactive)
- GI50 (OVCAR-4): 16.2 µM (inactive)
- GI50 (SNB-19): 20.3 µM (inactive)
- GI50 (SW-620): 23.4 µM (inactive)
- GI50 (UACC-62): 14.1 µM (inactive)
- GI50 (HT-29): 14.5 µM (inactive)
- GI50 (HCT-116): 12 µM (inactive)
- GI50 (SF-295): 19.3 µM (inactive)
- GI50 (NCI-H522): 17.7 µM (inactive)
- GI50 (HCT-15): 30.5 µM
- GI50 (DU-145): 40.8 µM (inactive)
- GI50 (MOLT-4): 11.9 µM (inactive)
- GI50 (SR): 34.8 µM (inactive)
- GI50 (UACC-257): 17.6 µM (inactive)
- GI50 (EKVX): 27.2 µM (inactive)
- GI50 (786-0): 17.8 µM (inactive)
- GI50 (SN12C): 15.5 µM (inactive)
- GI50 (BT-549): 15.7 µM (inactive)
- GI50 (PC-3): 11.1 µM (inactive)

Structure (SMILES): O=C(Nc1ccccc1)N1CCN(C(=O)Nc2ccccc2)C1=S
- GI50 (ACHN): 8.57 µM (inactive)
- GI50 (Hs-578T): 35.9 µM (inactive)
- GI50 (HL-60): 29.3 µM (inactive)
- GI50 (KM12): > 100 µM (inactive)
- GI50 (HCC 2998): > 100 µM (inactive)
- GI50 (HOP-62): 25.2 µM (inactive)
- GI50 (NCI-H23): 22.3 µM (inactive)
- GI50 (A549): > 100 µM (inactive)
- GI50 (SF-268): 20 µM (inactive)
- GI50 (SK-MEL-2): > 100 µM (inactive)
- GI50 (SNB-75): 17.9 µM (inactive)
- GI50 (Malme-3M): > 100 µM (inactive)
- GI50 (OVCAR-8): 34.6 µM (inactive)
- GI50 (UO-31): 23.7 µM (inactive)
- GI50 (T47D): 40.9 µM (inactive)
- GI50 (CAKI-1): 41.7 µM (inactive)
- GI50 (SF-539): 18.5 µM (inactive)
- GI50 (MDA-MB-435): > 100 µM (inactive)
- GI50 (A498): 0.0652 µM (active)
- GI50 (U-251): > 100 µM (inactive)
- GI50 (RXF 393): 19.9 µM (inactive)
- GI50 (SK-MEL-28): > 100 µM (inactive)
- GI50 (M14): 56.4 µM (inactive)
- GI50 (SK-OV-3): 28.6 µM (inactive)
- GI50 (NCI/ADR-RES): 41.9 µM (inactive)
- GI50 (SK-MEL-5): > 100 µM (inactive)
- GI50 (OVCAR-3): > 100 µM (inactive)
- GI50 (MDA-MB-231): > 100 µM (inactive)
- GI50 (NCI-H460): 65 µM (inactive)
- GI50 (NCI-H226): 28.1 µM (inactive)
- GI50 (IGROV-1): 49 µM (inactive)
- GI50 (COLO 205): > 100 µM (inactive)
- GI50 (LOX IMVI): > 100 µM (inactive)
- GI50 (RPMI-8226): > 100 µM (inactive)
- GI50 (TK-10): 38.5 µM (inactive)
- GI50 (OVCAR-4): 55.7 µM (inactive)
- GI50 (SW-620): > 100 µM (inactive)
- GI50 (HT-29): > 100 µM (inactive)
- GI50 (HCT-116): 47.6 µM (inactive)
- GI50 (SF-295): 23.4 µM (inactive)
- GI50 (NCI-H522): 90.2 µM (inactive)
- GI50 (K562): > 100 µM (inactive)
- GI50 (HCT-15): 88.5 µM
- GI50 (DU-145): > 100 µM (inactive)
- GI50 (MOLT-4): > 100 µM (inactive)
- GI50 (SR): > 100 µM (inactive)
- GI50 (HOP-92): 29 µM (inactive)
- GI50 (UACC-257): > 100 µM (inactive)
- GI50 (EKVX): > 100 µM (inactive)
- GI50 (786-0): 37 µM (inactive)
- GI50 (SN12C): 59.3 µM (inactive)
- GI50 (BT-549): 30.4 µM (inactive)
- GI50 (CCRF-CEM): 97.7 µM (inactive)
- GI50 (MDA-N): > 100 µM (inactive)
